Earlier results as cited in PubChem BioAssay AID1259409 (Chemical Carcinogenesis Research Information System (CCRIS), 2018).

Tested on: rodent chemically induced tumor inhibition, incidence and multiplicity
Experiment: CCRIS tumor inhibitor studies

## C=C(C)[C@H]1Cc2c(ccc3c2O[C@@H]2COc4cc(OC)c(OC)cc4[C@@H]2C3=O)O1
Carcinogen: AZOXYMETHANE (25843-45-2), Dose [Inhibitor]: 0, 500 PPM IN DIET FOR 4 WK, BEGINNING 1 WK BEFORE THE FIRST CARCINOGEN DOSE (STUDY DURATION: 38 WK), Route [Inhibitor]: ORAL, Species: RAT, Strain/Sex: F344/MALE, Target Tissue: Type of Lesion: LARGE INTESTINE: ADENOCARCINOMA, Dose [Carcinogen]: 15 MG/KG BW 1 INJECTION/WK FOR 3 WK, Promoter: NONE USED
  tumour outcome (control, treated, inhibition, significance): 9/15 (60%), 6/19 (32%), 47%, not significant
Carcinogen: AZOXYMETHANE (25843-45-2), Dose [Inhibitor]: 0, 500 PPM IN DIET FOR 4 WK, BEGINNING 1 WK BEFORE THE FIRST CARCINOGEN DOSE (STUDY DURATION: 38 WK), Route [Inhibitor]: ORAL, Species: RAT, Strain/Sex: F344/MALE, Target Tissue: Type of Lesion: LARGE INTESTINE: ADENOMA, Dose [Carcinogen]: 15 MG/KG BW 1 INJECTION/WK FOR 3 WK, Promoter: NONE USED
  tumour outcome (control, treated, inhibition, significance): 4/15 (27%), 2/19 (11%), 59%, not significant
Carcinogen: AZOXYMETHANE (25843-45-2), Dose [Inhibitor]: 0, 500 PPM IN DIET FOR 4 WK, BEGINNING 1 WK BEFORE THE FIRST CARCINOGEN DOSE (STUDY DURATION: 38 WK), Route [Inhibitor]: ORAL, Species: RAT, Strain/Sex: F344/MALE, Target Tissue: Type of Lesion: SMALL INTESTINE: ADENOCARCINOMA, Dose [Carcinogen]: 15 MG/KG BW 1 INJECTION/WK FOR 3 WK, Promoter: NONE USED
  tumour outcome (control, treated, inhibition, significance): 4/15 (27%), 1/19 (5%), 81%, not significant
Carcinogen: AZOXYMETHANE (25843-45-2), Dose [Inhibitor]: 0, 500 PPM IN DIET FOR 4 WK, BEGINNING 1 WK BEFORE THE FIRST CARCINOGEN DOSE (STUDY DURATION: 38 WK), Route [Inhibitor]: ORAL, Species: RAT, Strain/Sex: F344/MALE, Target Tissue: Type of Lesion: SMALL INTESTINE: ADENOMA, Dose [Carcinogen]: 15 MG/KG BW 1 INJECTION/WK FOR 3 WK, Promoter: NONE USED
  tumour outcome (control, treated, inhibition, significance): 1/15 (7%), 0/19 (0%), 100%, not significant
Carcinogen: AZOXYMETHANE (25843-45-2), Dose [Inhibitor]: 0, 500 PPM IN DIET FOR 34 WK, BEGINNING 1 WK AFTER THE LAST CARCINOGEN DOSE (STUDY DURATION: 38 WK), Route [Inhibitor]: ORAL, Species: RAT, Strain/Sex: F344/MALE, Target Tissue: Type of Lesion: LARGE INTESTINE: ADENOCARCINOMA, Dose [Carcinogen]: 15 MG/KG BW 1 INJECTION/WK FOR 3 WK, Promoter: NONE USED
  tumour outcome (control, treated, inhibition, significance): 9/15 (60%), 3/16 (19%), 68%, p= 0.0226
Carcinogen: AZOXYMETHANE (25843-45-2), Dose [Inhibitor]: 0, 500 PPM IN DIET FOR 34 WK, BEGINNING 1 WK AFTER THE LAST CARCINOGEN DOSE (STUDY DURATION: 38 WK), Route [Inhibitor]: ORAL, Species: RAT, Strain/Sex: F344/MALE, Target Tissue: Type of Lesion: LARGE INTESTINE: ADENOMA, Dose [Carcinogen]: 15 MG/KG BW 1 INJECTION/WK FOR 3 WK, Promoter: NONE USED
  tumour outcome (control, treated, inhibition, significance): 4/15 (27%), 1/16 (6%), 78%, not significant
Carcinogen: AZOXYMETHANE (25843-45-2), Dose [Inhibitor]: 0, 500 PPM IN DIET FOR 34 WK, BEGINNING 1 WK AFTER THE LAST CARCINOGEN DOSE (STUDY DURATION: 38 WK), Route [Inhibitor]: ORAL, Species: RAT, Strain/Sex: F344/MALE, Target Tissue: Type of Lesion: SMALL INTESTINE: ADENOCARCINOMA, Dose [Carcinogen]: 15 MG/KG BW 1 INJECTION/WK FOR 3 WK, Promoter: NONE USED
  tumour outcome (control, treated, inhibition, significance): 4/15 (27%), 1/16 (6%), 78%, not significant
Carcinogen: AZOXYMETHANE (25843-45-2), Dose [Inhibitor]: 0, 500 PPM IN DIET FOR 34 WK, BEGINNING 1 WK AFTER THE LAST CARCINOGEN DOSE (STUDY DURATION: 38 WK), Route [Inhibitor]: ORAL, Species: RAT, Strain/Sex: F344/MALE, Target Tissue: Type of Lesion: SMALL INTESTINE: ADENOMA, Dose [Carcinogen]: 15 MG/KG BW 1 INJECTION/WK FOR 3 WK, Promoter: NONE USED
  tumour outcome (control, treated, inhibition, significance): 1/15 (7%), 0/16 (0%), 100%, not significant
Carcinogen: DIETHYLNITROSAMINE, Dose [Inhibitor]: 0, 0.005, 0.5, 500 PPM FOR 11 OR 43 WK BEGINNING 1 WK AFTER CARCINOGEN (STUDY DURATION: 45 WK), Dose [Inhibitor]: 0, 0.005, 0.5, 500 PPM FOR 11 OR 43 WK BEGINNING 1 WK AFTER CARCINOGEN (STUDY DURATION: 45 WK), Route [Inhibitor]: DIET, Species: RAT, Strain/Sex: F344/MALE, Target Tissue: Type of Lesion: LIVER: HEPATOCELLULAR CARCINOMA, HEPATOCELLULAR ADENOMA, Dose [Carcinogen]: 100 MG/KG BW TWICE AT 1 WK INTERVALS (STUDY DURATION: 45 WK)
  outcome: 60; 35; 65; 100: 55; 65; 50; 100

## C[Se]C#N
Carcinogen: 7,12-DIMETHYLBENZ[A]ANTHRACENE, 57-97-6, Dose [Inhibitor]: 0, 1 PPM (AS SELENIUM) IN DIET BEGINNING 2 WK PRIOR TO CARCINOGEN DOSE AND CONTINUING FOR DURATION OF STUDY (STUDY DURAT, Route [Inhibitor]: ORAL, Species: RAT, Strain/Sex: SPRAGUE-DAWLEY/FEMALE, Target Tissue: Type of Lesion: MAMMARY GLAND: ADENOCARCINOMA, Dose [Carcinogen]: 10 MG ONCE AT 55 D OF AGE, Promoter: NONE USED
  tumour outcome (control, treated, inhibition, significance): 88%, 64%, 27%, not significant
Carcinogen: 7,12-DIMETHYLBENZ[A]ANTHRACENE, 57-97-6, Dose [Inhibitor]: 0, 2 PPM (AS SELENIUM) IN DIET BEGINNING 2 WK PRIOR TO CARCINOGEN DOSE AND CONTINUING FOR DURATION OF STUDY (STUDY DURAT, Route [Inhibitor]: ORAL, Species: RAT, Strain/Sex: SPRAGUE-DAWLEY/FEMALE, Target Tissue: Type of Lesion: MAMMARY GLAND: ADENOCARCINOMA, Dose [Carcinogen]: 10 MG ONCE AT 55 D OF AGE, Promoter: NONE USED
  tumour outcome (control, treated, inhibition, significance): 88%, 52%, 41%, p<0.05
Carcinogen: 7,12-DIMETHYLBENZ[A]ANTHRACENE, 57-97-6, Dose [Inhibitor]: 0, 3 PPM (AS SELENIUM) IN DIET BEGINNING 2 WK PRIOR TO CARCINOGEN DOSE AND CONTINUING FOR DURATION OF STUDY (STUDY DURAT, Route [Inhibitor]: ORAL, Species: RAT, Strain/Sex: SPRAGUE-DAWLEY/FEMALE, Target Tissue: Type of Lesion: MAMMARY GLAND: ADENOCARCINOMA, Dose [Carcinogen]: 10 MG ONCE AT 55 D OF AGE, Promoter: NONE USED
  tumour outcome (control, treated, inhibition, significance): 88%, 40%, 55%, p<0.05
Carcinogen: 7,12-DIMETHYLBENZ[A]ANTHRACENE, 57-97-6, Dose [Inhibitor]: 0.1, 2 PPM (SELENIUM) IN DIET FOR 3 WK BEGINNING 2 WK PRIOR TO CARCINOGEN DOSE (STUDY DURATION: 25 WK), Route [Inhibitor]: ORAL, Species: RAT, Strain/Sex: SPRAGUE-DAWLEY/FEMALE, Target Tissue: Type of Lesion: MAMMARY GLAND: TUMOR, Dose [Carcinogen]: 10 MG ONCE, Promoter: NONE USED
  tumour outcome (control, treated, inhibition, significance): 25/30 (83%), 19/30 (63%), 24%, not significant

## C=C(NC(=O)Cc1ccc(OS(=O)(=O)O)cc1)C(=O)O
Carcinogen: 7,12-DIMETHYLBENZ[A]ANTHRACENE, 57-97-6, Dose [Inhibitor]: 0, 1 MMOL 15 MINUTES AFTER EACH PROMOTER TREATMENT BEGINNING 2 WK POST CARCINOGEN (STUDY DURATION: 42 WK), Route [Inhibitor]: DERMAL, Species: MOUSE, Strain/Sex: SENCAR/FEMALE, Target Tissue: Type of Lesion: SKIN: SQUAMOUS CELL CARCINOMA, Dose [Carcinogen]: 10 NMOL IN 0.2 ML ACETONE ONCE
  tumour outcome (control, treated, inhibition, significance): 48%, 25%, 48%, not calculated

## C[C@@]12C=Cc3occc3[C@H]1CC[C@@]13C[C@@H](CC[C@H]12)[C@@](O)(CO)C3
Carcinogen: 7,12-DIMETHYLBENZ[A]ANTHRACENE, 57-97-6, Dose [Inhibitor]: 0, 0.2 G/KG OF DIET OF 50:50 MIXTURE OF KAHWEOL AND CAFESTOL FOR 14 WK BEGINNING 1 WK PRIOR TO CARCINOGEN TREATMENT (STU, Route [Inhibitor]: ORAL, Species: HAMSTER, Strain/Sex: SYRIAN/FEMALE, Target Tissue: Type of Lesion: BUCCAL POUCH: TUMOR, Dose [Carcinogen]: 0.5% SOLUTION IN MINERAL OIL PAINTED ON LEFT BUCCAL POUCH 3/WK FOR 13 WK, Promoter: NONE USED
  tumour outcome (control, treated, inhibition, significance): 14/14 (100%), 14/14 (100%), 0%, not significant
Carcinogen: 7,12-DIMETHYLBENZ[A]ANTHRACENE, 57-97-6, Dose [Inhibitor]: 0, 2 G/KG OF DIET OF 50:50 MIXTURE OF KAHWEOL AND CAFESTOL FOR 14 WK BEGINNING 1 WK PRIOR TO CARCINOGEN TREATMENT (STUDY, Route [Inhibitor]: ORAL, Species: HAMSTER, Strain/Sex: SYRIAN/FEMALE, Target Tissue: Type of Lesion: BUCCAL POUCH: TUMOR, Dose [Carcinogen]: 0.5% SOLUTION IN MINERAL OIL PAINTED ON LEFT BUCCAL POUCH 3/WK FOR 13 WK, Promoter: NONE USED
  tumour outcome (control, treated, inhibition, significance): 14/14 (100%), 14/15 (93%), 7%, not significant
